Source: patent US12213959B2, “Use of 3-O-sulfamoyloxy-7β-methyl-d-homo-6-oxaestra-1,3,5(10),8(9)-tetraen-17a-one to treat breast cancer” (priority 2018, dated 2025)
Values joined by “and” are separate entries in the source; they are usually repeats but may differ in a detail not shown here. Identical values can stand only once. Marks after values point to notes of the source that are not given here.

Experiments:
[1] = tested on: inoculated human tumour of triple-negative breast cancer; experiment: Animal models with inoculated human triple-negative breast cancer tumour; conditions: in vivo
[2] = Body weight and tolerability during the antitumour study
Procedure: The study medicament was administered i.g. using a metal atraumatic gavage (with the procedure corresponds to the oral route of administration in clinical settings). […] Ex tempore solutions of the medicament for administration were prepared in olive oil (refined olive oil supplemented with unrefined extra virgin olive oil available under Global Village “Clasico” trademark, lot L:183351116, expiry date 26.04.2020, BAIEO, Spain). The administered volume was 0.1 ml per 10 g of a mouse body weight (0.2 ml of a ready-to-use formulation for a mouse of 20 g). The medicament administration was started 24 hours after the randomization. Duration of the administration course was 27-28 days.
This dose corresponds to a human daily dose of 20 mg/kg.
The evaluation criteria included the clinical observation data, animals body weights, time of death (if applicable), tumor growth over time, pathomorphological examination data (verification of a neoplasm during autopsy, assessment of toxic effects by macroscopic presentation of changes in the internal organs).
The animals body weights were recorded before the first administration of the medicaments and then twice per week using a verified high-speed electronic laboratory balance Ohaus Scout Pro (USA) with a maximum load of 2000 g and a measurement pitch of 0.1 g.

[3] = tested on: Normal human dermal fibroblasts (HDF); experiment: Proliferative activity of normal human skin fibroblasts (negative control); format: cell-based; conditions: 20 μg/ml
Procedure: The study analysis was carried out on an passaged MCF-7 human cells culture culture (breast adenocarcinoma). Normal human dermal fibroblasts (HDF) of early passages were used as a negative control.
The cells were cultivated in Carrel vials in DMEM/F12 medium (Biolot) with 1.0% of antibiotic-free fetal bovine embryonic serum (Biolot) added in the 5% CO2 atmosphere, at 37° C.
The cells were seeded on Carrel vials at 50×10^4 cells per flask. To study the proliferative activity of the cells under conditions of sulfatase inhibition, 24 hours after seeding the culture medium […], and then these tumor cell lines were incubated for various periods of time (24 to 72 hrs). The inhibitor was dissolved in DMSO. […] To exclude the cytotoxic effect of DMSO, a control sample comprising DMSO without sulfatase inhibitor was prepared.
To exclude nonspecific detrimental effects of the compounds, normal human skin fibroblasts were used. Then the cells were detached with the versene-trypsin solution (Biolot), plated onto Carrel vials containing a fresh complete culture medium. The cells were counted when untreated control cells reached the maximum cell density per unit of surface area of a culture flask (monolayer), and their number was set as 100%. The proliferative activity of all of the studied cell cultures exposed to sulfatase inhibitors was determined in triplicate.

[4] = tested on: breast tumours in FBV/N female mice, transgenic for HER-2/neu; experiment: Antitumour activity on breast tumours of HER-2/neu transgenic mice; format: in vivo; conditions: for antitumour activity compared with Tamoxifen: FVB mice transgenic for HER-2/neu with breast tumours
Procedure: The study was carried out on female FVB mice transgenic for HER-2/neu of the conventional category, the strain being obtained from the mouse bank Charles River Laboratories (Italy).
Duration of the administration course was 27-28 days.
The control groups were given the olive oil (placebo).
The macroscopically detectable tumor nodes were measured in the animals once per week during the weighing process.

[5] = medicament 2 mg/kg daily i.g., Day 0
[6] = medicament 2 mg/kg daily i.g., Day 7
[7] = medicament 2 mg/kg daily i.g., Day 14
[8] = medicament 2 mg/kg daily i.g., Day 21
[9] = medicament 2 mg/kg daily i.g., Day 28
[10] = medicament 2 mg/kg, end of observation
[11] = medicament 20 mg/kg daily i.g., Day 0
[12] = medicament 20 mg/kg daily i.g., Day 7
[13] = medicament 20 mg/kg daily i.g., Day 14
[14] = medicament 20 mg/kg daily i.g., Day 21

C[C@H]1Oc2cc(OS(N)(=O)=O)ccc2C2=C1[C@@H]1CCCC(=O)[C@@]1(C)CC2 [medicament, 3-O-sulfamoyloxy-7β-methyl-O-homo-6-oxaestra-1,3,5(10),8(9)-tetraen]
action compared with Tamoxifen and Letrozole [1]: better action than that of the clinically used Tamoxifen and an aromatase inhibitor Letrozole
signs of toxic damage to the internal organs at autopsy ([2]; end of the experiment): no specific signs of toxic damage to the internal organs
clinical signs of toxicity ([2]; mouse, in vivo): no clinical signs of toxicity being observed
growth of human skin fibroblasts [3]: does not influence the growth
antitumour activity compared with Tamoxifen [4]: not lower than that of the reference durg, Tamoxifen
antitumour activity compared with Tamoxifen ([4]; listed as agent): more effectively than clinically used Tamoxifen
antitumour effect on the model ([4]; dose range 2.0, 20.0 and 100.0 mg/kg): no pronounced antitumour effect
Average volume of new tumours at the end of the observation period ([4]; medicament 2 mg/kg): 0.33 cm^3
effect on frequency of stabilisations or volume of newly developing tumours ([4]; medicament 2.0 mg/kg): had no effect
relative change in the total volume of tumours versus control values ([4]; medicament 2.0 mg/kg): greater than the control values
Average volume of tumors existing at the beginning of the experiment (M) [4, 5]: 0.27 cm^3
Relative change of the average total volume of tumours to that of Day −1 (M) [4, 5]: 0%
Average total volume of tumours in mice (M) ([4]; medicament 2.0 mg/kg daily i.g., Day 0): 1.24 cm^3
Average volume of tumors existing at the beginning of the experiment (M) [4, 6]: 0.42 cm^3
Relative change of the average total volume of tumours to that of Day −1 (M) [4, 6]: 59%
Average total volume of tumours in mice (M) ([4]; medicament 2.0 mg/kg daily i.g., Day 7): 1.91 cm^3
Average volume of tumors existing at the beginning of the experiment (M) [4, 7]: 0.6 cm^3
Relative change of the average total volume of tumours to that of Day −1 (M) [4, 7]: 131%
Average total volume of tumours in mice (M) ([4]; medicament 2.0 mg/kg daily i.g., Day 14): 2.71 cm^3
Average volume of tumors existing at the beginning of the experiment (M) [4, 8]: 0.77 cm^3
Relative change of the average total volume of tumours to that of Day −1 (M) [4, 8]: 210%
Average total volume of tumours in mice (M) ([4]; medicament 2.0 mg/kg daily i.g., Day 21): 3.50* cm^3
Average volume of tumors existing at the beginning of the experiment (M) [4, 9]: 1.11 cm^3
Relative change of the average total volume of tumours to that of Day −1 (M) [4, 9]: 347*** %
Average total volume of tumours in mice (M) ([4]; medicament 2.0 mg/kg daily i.g., Day 28): 5.04 cm^3
Average tumor volume, % of change to the initial value ([4]; medicament 2 mg/kg daily i.g., Day 28 vs Day 0): 311%
Average total tumour volume, % of change to the initial value ([4]; medicament 2.0 mg/kg daily i.g., Day 28 vs Day 0): 307%
Absolute number of new tumours [4, 10]: 30
frequency of stabilisations of tumours present at initiation of treatment [4, 10]: 5%
TGI (average tumor volume) ([4]; medicament 2 mg/kg, vs Control-3, Day 0): 29%
TGI (average total tumour volume) ([4]; medicament 2.0 mg/kg, vs Control-3, Day 0): 45%
TGI (average tumor volume) ([4]; medicament 2 mg/kg, vs Control-3, Day 7): 16%
TGI (average total tumour volume) ([4]; medicament 2.0 mg/kg, vs Control-3, Day 7): 37%
TGI (average tumor volume) ([4]; medicament 2 mg/kg, vs Control-3, Day 14): 14%
TGI (average total tumour volume) ([4]; medicament 2.0 mg/kg, vs Control-3, Day 14): 35%
TGI (average tumor volume) ([4]; medicament 2 mg/kg, vs Control-3, Day 21): 9%
TGI (average total tumour volume) ([4]; medicament 2.0 mg/kg, vs Control-3, Day 21): 31%
TGI (average tumor volume) ([4]; medicament 2 mg/kg, vs Control-3, Day 28): −14%
TGI (average total tumour volume) ([4]; medicament 2.0 mg/kg, vs Control-3, Day 28): 13%
Average volume of new tumours at the end of the observation period ([4]; medicament 20 mg/kg): 0.19±0.04 cm^3 and 0.19 cm^3
Average total volume of tumours in mice (M) [4, 11]: 0.41 cm^3
Average volume of tumors existing at the beginning of the experiment (M) [4, 11]: 0.18 cm^3
Relative change of the average total volume of tumours to that of Day −1 (M) ([4]; medicament 20.0 mg/kg daily i.g., Day 0): 0%
Average total volume of tumours in mice (M) [4, 12]: 0.62 cm^3
Average volume of tumors existing at the beginning of the experiment (M) [4, 12]: 0.28 cm^3
Relative change of the average total volume of tumours to that of Day −1 (M) ([4]; medicament 20.0 mg/kg daily i.g., Day 7): 55%
Average total volume of tumours in mice (M) [4, 13]: 0.94 cm^3
Average volume of tumors existing at the beginning of the experiment (M) [4, 13]: 0.43 cm^3
Relative change of the average total volume of tumours to that of Day −1 (M) ([4]; medicament 20.0 mg/kg daily i.g., Day 14): 145%
Average total volume of tumours in mice (M) [4, 14]: 1.18 cm^3
Average volume of tumors existing at the beginning of the experiment (M) [4, 14]: 0.54 cm^3
Relative change of the average total volume of tumours to that of Day −1 (M) ([4]; medicament 20.0 mg/kg daily i.g., Day 21): 209** %
